Like-named read-outs stand apart in the source and are kept apart here.

The test system of data set [1] is Epiderm™ Human Tissue Model (EPI-200). The data set can be described thus: MTT tissue viability assay (ET-50 protocol) for skin irritancy. How it is done:
(§1) Mitigation of skin irritancy induced by sodium dodecyl sulfate (SDS) surfactant dosed with the polymer of Example 56 is assessed in the Epiderm™ Human Tissue Model (EPI-200) bioassay conducted by MatTek Corporation, Ashland, Mass. The MatTek bioassay utilizes human derived epidermal keratinocytes (NHEK) which have been cultured to form a multilayered, highly differentiated model of the human epidermis.
(§2) The MTT tissue viability assay measures the NAD(P)H dependent microsomal enzyme reduction of MTT (and to a lesser extent, the succinate dehydrogenase reduction of MTT) after exposure to a treated skin culture test sample for various exposure times. The duration of exposure resulting in a 50% decrease in MTT conversion in test formulation treated EpiDerm™ cultures, relative to control cultures, is determined (ET-50).
(§3) A SDS surfactant/polymer test formulation is formulated from the components set forth in Table 10 and evaluated for irritancy potential using the MTT viability assay. Test samples containing neat SDS surfactant (no polymer) are formulated for comparative purposes.
(§4) Skin tissue culture inserts (Cat. No. EPI-200) are pre-incubated in the wells of 6-well plates containing 0.9 ml of MatTek assay medium (Cat. No. EPI-100-ASY) for 1 hr. at 37° C. in a humidified atmosphere of 5% CO2 in air. The 6-well plates containing the tissue culture inserts are removed from the incubator and the assay media is aspirated from the wells and replaced by an additional aliquot of 0.9 ml of pre-warmed (37° C.) assay media. For each exposure time wells are then dosed (2 repetitions) with 100 μl of the test formulations set forth in Table 10 (3 tissue culture wells are dosed with 100 μl ultra-pure water as a negative control for each of the test candidates). In addition, 100 μl of a positive control formulation (1% Triton X-100 in ultrapure water) is dosed into tissue culture wells (3 repetitions for each exposure time), as well as 3 repetitions of ultrapure water as a negative control. The exposure times of the test formulations, negative control and positive control are set forth below.
(§5) MTT assay plates are prepped by preparing a 24-well plate by adding 300 μl of MTT reagent solution to an appropriate number of wells to accommodate the test. The MTT reagent is utilized at a concentration of 1 mg/ml of MTT diluted in Dulbecco's Modified Eagle Medium (DMEM). The MTT/DMEM solution is centrifuged and decanted to remove any precipitate before use.
(§6) After exposure times of 60 (1 hr.), 120 (2 hrs.) and 210 (3.5 hrs.) minutes to the test solutions, the tissue cultures are removed from the incubator and thoroughly rinsed (2 times) with Dulbecco's phosphate buffered saline (DPBS) to remove the test material. The negative control is exposed for 4 hours and the positive control is exposed for time periods of 4, 6, 8, and 10 hours. Any remaining rinse media is decanted from the top of the tissue cultures. Each tissue culture insert is transferred to an appropriately labeled well of the 24-well plate containing the MTT reagent solution and placed back in the incubator. After 30 minutes reaction with the MTT reagent, the tissue cultures are removed from the incubator. Each tissue culture insert is removed from its well and the bottom is gently blotted with a lab tissue. The inserts are immersed into a labeled 24-well extraction plate containing 2 ml of isopropanol extractant solution. […]
(Tetrazolium dyes change colour on reduction, which living cells bring about.)

Assay in data set [2]: as above
As to conditions: human. How it is done:
as §1, §2, §3, §4, §5, §6

Regarding Triton X-100 [1% Triton X-100], the “ET-50 (exposure time which reduces tissue viability to 50%)” value in data set [1] turned out to be 5.93 h.
Usually viability stands for a per cent measure of how many cells are alive, often set against a control. Lower therefore signals more harm to the cells. For `CCCCCCCCCCCCOS(=O)(=O)[O-].[Na+]` [Neat Surfactant, sodium dodecyl sulfate], in data set [2], the viability at 1 hr was found to be 72%, the viability at 2 hr came to 28% and the viability at 3.5 hr is 19.6%. Also, in data set [1] (interpolated between exposure times that bracket 50% viability), the “ET-50 (exposure time which reduces tissue viability to 50%)” value was 1.41 h.

The values are drawn from patent US20150335565A1, “IRRITATION MITIGATING POLYMERS AND USES THEREFOR” (LUBRIZOL ADVANCED MATERIALS, INC., priority 2012, published 2015).
